The nature of data set [1]: Locomotor activity observation in carrageenin-treated rats. The data set is classed as in vivo, female Wister rats. Conditions: oral, carrageenin-injected rats. Here is the method:
(§1) To female Wister rats weighing 130-150 g nothing was fed for 19 hours. Then, the rats were orally administered the test compound. Sixty minutes later, the pad of a hind paw of the rat was injected with 0.1 ml of 1% carrageenin solution. After edema was formed on the paw, paw volume and body temperature of the rat were measured, and movement of the rat was observed. As a result, both 3-amino-5-chloroindazole and Compound (46) show a strong inhibition to the edema, that is, 65% and 59%, respectively,after 3 hours from the injection.

Data set [2] can be described thus: Body temperature / side effects in carrageenin-treated rats. The data set is classed as in vivo, female Wister rats. The method, then: as §1
Data set [3] relates to carrageenin edema on hind paw. Briefly: Carrageenin edema inhibition, comparison with 3-amino-5-chloroindazole. The data set is classed as in vivo, female Wister rats. Conditions: oral; for inhibition to the (carrageenin) edema: after 3 hours from the injection of 1% carrageenin. The method, then:
as §1
(Carrageenan injected into the paw causes an acute inflammation.)

Data set [4] is described as follows: Superoxide capture by ESR and UV spectra (potassium superoxide / dicyclohexyl-18-crown-6 in acetonitrile). The data set is classed as biochemical. Conditions: for catch of superoxide / one electron acceptance: ESR and UV. The method, then:
As described in Yoshihiko Oyagi, "Superoxide and Medical Science", pp. 120-144, published by Kyoritsu Shuppan, a superoxide is considered to be one of the factors which cause the inflammation.
According to the description on Transactions of the Faraday Society, 59, 2016-2026 (1963), the UV spectrum of a phenoxy radical is observed at 380-430 nm. When the UV spectrum of a mixture of the 3-amino-5-hydroxyindazole and dicyclohexyl-18-crown-6 is measured in acetonitrile, λmax is observed at 306 nm. If potassium superoxide is added to the mixture, λmax is observed at 403 nm and 426 nm. On the other hand, no absorptions are observed at 350-450 nm when the UV spectra of potassium superoxide and 3-amino-5-hydroxyindazole are measured respectively in the presence of both dicyclohexyl-18-crown-6 and acetonitrile.

For data set [5], the system named is Carrageenin edema in rat's paw. Briefly: Carrageenin Edema Test in Rat's Paw (anti-inflammatory activity, Table 1). The data set is classed as in vivo. Conditions: 100 mg/kg oral, hydrochloride, rat. The method, then:
An anti-inflammatory activity was measured by orally administering 100 mg/kg of a hydrochloride of the indazole derivative of this invention as set forth in Table 1 to an animal in accordance with the standard method of Carrageenin Edema Test in Rat's Paw described in C. A. Winter et al., Proc. Soc. Exp. Biol. Med., 111, 544 (1962).

The nature of the next data set: in vivo. The conditions noted are these: mouse, ip, intraperitoneal, hydrochloride, male ddy mice.
The test system of a further data set is Serotonin inducing edema. In words: Anti-edema test, serotonin inducing edema (Table 2). The data set is classed as in vivo, rat. Conditions: after 3 hours. The method, then:
(§2) […] A. Winter et al., NonSteroidal Anti-inflammatory Drugs. As an edema inducing substance, bradykinin, histamine and serotonin were employed. […] Bradykinin inducing edema inhibition and histamine inducing edema inhibition were measured after 30 minutes of the administration, and serotonin inducing edema inhibition was measured after 3 hours of the administration.

In data set [6] the test system is Bradykinin inducing edema. Briefly: Anti-edema test, bradykinin inducing edema (Table 2). The data set is classed as in vivo, rat. Conditions: after 30 minutes. Here is the method: as §2
The next data set has as its system Histamine inducing edema. In words: Anti-edema test, histamine inducing edema (Table 2). The data set is classed as in vivo, rat. The conditions noted are these: after 30 minutes. Here is the method: as §2
The subject of the next data set is acetic acid-writing. Briefly: Analgesic activity, acetic acid-writing test (Table 3). The data set is classed as in vivo, animal (rat); standard mouse acetic acid-writing test.
A further data set concerns gastric ulcer. The data set is classed as in vivo, Male donryu rats. Here is the method: The test compound was suspended in 1% HCO-60 (trade name for polyoxyethylene hydrogenated castor oil; a product of Nikko Chemical Co., Ltd., Japan) at the concentration of 10 mg/ml. Male donryu rats weighing 150-160 g were orally administered 100 mg/kg of the test compound. The occurrence of gastric ulcer was examined 24 hours after the administration.
It is well known that the single use of acidic non-steroidal anti-inflammatory drugs causes a side effect in digestive tract ulcers such as gastric ulcer. The inventors found, however, that the side effect could be suppressed if the acidic non-steroidal anti-inflammatory drugs were used in combination with the indazole derivatives or pharmaceutically acceptable salts thereof of this invention. For example, gastric ulcer was caused by a single administration of 10 mg/kg of indomethacin in an ulcer index of 10.2 mm, and in an occurrence frequency of 6/6 (Ulcer generation animal number/Total animal number).

[7] abbreviates: potassium superoxide, dicyclohexyl-18-crown-6, acetonitrile.
The mark [8] stands for this setting: 100 mg/kg Compound (126) together with 10 mg/kg indomethacin.

“And” between values parts separate entries of the source, which are not always exact repeats. Equal entries are not always repeated. “Also recorded” adds a separate entry of the source. Where two headings read alike, the source gives them in different places.

Turning to `Nc1n[nH]c2ccc(Cl)cc12` [3-amino-5-chloroindazole, reference compound], in [1], the “depression of locomotor activity” value is reported as “remarkable depression of locomotor activity”. Besides, the “decrease of body temperature” value in data set [2] (oral, carrageenin-injected rats) was 3-4 °C. Moreover, the “inhibition to the (carrageenin) edema” value in data set [3] is 65%.

As to `Nc1n[nH]c2ccc(O)cc12` [3-amino-5-hydroxyindazole, 3-Amino-5-hydroxyindazole], in data set [4] (setting [7]), the “ESR signals on addition to superoxide mixture (phenoxy radical)” value is listed as “six superfine signals are observed” and the “catch of superoxide / one electron acceptance” value is on record as “a phenoxy radical is produced”. For the same molecule, the “UV λmax after adding potassium superoxide (phenoxy radical)” value in data set [4] (with potassium superoxide and dicyclohexyl-18-crown-6 in acetonitrile) was 403 nm and 426 nm.

The inhibition in vivo is the share of the control response that was lost under treatment. A word on the LD50: it is the dose at which mortality reaches 50%. High values mean a less toxic substance, low ones a more toxic substance. In data set [5], `CCN(CC)CCCNc1n[nH]c2ccc(Cl)cc12` [(46), 3-(3-Diethylaminopropylamino)-5-chloroindazole] showed an inhibition in vivo at 100 mg/kg of 59%. The same molecule registered a median lethal dose (LD50) in “in vivo” of 211 mg/kg. The “Serotonin inducing edema Inhibition” value in the data set on Serotonin inducing edema (100 mg/kg oral) is reported as 73.4%. The “side effects (decrease of body temperature, depression of locomotor activity), words” value in [2] (relative to 3-amino-5-chloroindazole) is “can relieve the side effects of 3-amino-5-chloroindazole”. Moreover, in data set [6] (100 mg/kg oral), the “Bradykinin inducing edema Inhibition” value came to 14.7%. Also, in data set [3], the “Carrageenin edema inhibition activity relative to 3-amino-5-chloroindazole” value is given as “the same Carrageenin edema inhibition activity as 3-amino-5-chloroindazole” and the “inhibition to the (carrageenin) edema” value came to 59%. Also, the “Histamine inducing edema Inhibition” value in the data set on Histamine inducing edema (100 mg/kg oral) was found to be 31.0%. The “Inhibition (acetic acid-writing, analgesic activity)” value in the data set with acetic acid-writing (100 mg/kg oral) was found to be 52%.

With `CCN(CC)CCCn1nc(NCCCN2CCCCC2)c2cc(O)ccc21` [(126), 1-(3-Diethylaminopropyl)-3-(3-piperidinopropylamino)-5-hydroxyindazole], the inhibition in vivo at 100 mg/kg in [5] came to 28%. In addition, in the data set with gastric ulcer (setting [8]), the “occurrence frequency of ulcer” value is given as “the occurrence frequency was not changed” and the ulcer index was 5.8 mm. Further, in the data set with gastric ulcer (rat, in vivo), the “occurrence of gastric ulcer” value is listed as “gastric ulcer did not occur”. The LD50 in the data set “in vivo” was found to be 310 mg/kg.

In the case of `c1ccc2c(NCCCN3CCOCC3)n[nH]c2c1` [(152), 3-(3-Morpholinopropylamino)indazole], in data set [5], the inhibition in vivo at 100 mg/kg was 51%. Further, the “Serotonin inducing edema Inhibition” value in the data set on Serotonin inducing edema (100 mg/kg oral) is recorded as 42.9%. Further, in data set [6] (100 mg/kg oral), the “Bradykinin inducing edema Inhibition” value is on record as 37%. The “Histamine inducing edema Inhibition” value in the data set on Histamine inducing edema (100 mg/kg oral) was found to be 20.7%. In addition, in the data set on acetic acid-writing (100 mg/kg oral), the “Inhibition (acetic acid-writing, analgesic activity)” value is listed as 57%.

As to `CCN(CC)CCCNc1nn(CCCN2CCOCC2)c2ccccc12` [(155), 1-(3-Morpholinopropyl)-3-(3-diethylaminopropylamino)indazole], 100 mg/kg produced 30% inhibition in vivo in data set [5]. This molecule showed an LD50 in the data set “in vivo” of 291 mg/kg.

In turn, `CC1CCCC(C)N1CCCNc1nn(CCCN2CCOCC2)c2ccccc12` (centres unmarked) [(156), 1-(3-Morpholinopropyl)-3-[3-(2,6-dimethylpiperidino)propylamino]indazole] yielded an inhibition in vivo at 100 mg/kg in [5] of 32%. For the same molecule, the median lethal dose (LD50) in “in vivo” was determined as 301 mg/kg.

On to `ClC1CCN(CCCNc2nn(CCCN3CCOCC3)c3ccccc23)CC1` [(157), 1-(3-Morpholinopropyl)-3-[3-(4-chloropiperidino)propylamino]indazole], for which the inhibition in vivo at 100 mg/kg in data set [5] was determined as 29%. The LD50 in “in vivo” worked out at 251 mg/kg.

As to `OC1CCN(CCCNc2nn(CCCN3CCOCC3)c3ccccc23)CC1` [(158), 1-(3-Morpholinopropyl)-3-[3-(4-hydroxypiperidino)propylamino]indazole], the inhibition in vivo at 100 mg/kg in data set [5] came to 30%. In “in vivo”, the LD50 came out at 288 mg/kg.

Turning to `CCCCN(CCCC)CCCn1nc(NCCCN2CCOCC2)c2ccccc21` [(159), 1-(3-Di-n-butylaminopropyl)-3-(3-morpholinopropylamino)indazole], the inhibition in vivo at 100 mg/kg in data set [5] turned out to be 41%. Further, the LD50 in the data set “in vivo” amounted to 191 mg/kg.

`c1ccc2c(c1)c(NCCCN1CCOCC1)nn2CCCN1CCCCC1` [(160), 1-(3-Piperidinopropyl)-3-(3-morpholinopropylamino)indazole] showed an inhibition in vivo at 100 mg/kg in [5] of 39%. Further, the LD50 in the data set “in vivo” was 244 mg/kg.

Molecule `Nc1n[nH]c2cccc(O)c12` [(161), 3-Amino-4-hydroxyindazole] yielded an inhibition in vivo at 100 mg/kg in data set [5] of 41%. Further, the LD50 in “in vivo” amounted to 211 mg/kg.

As to `Nc1n[nH]c2ccc(O)cc12` [(162), 3-Amino-5-hydroxyindazole], at 100 mg/kg the inhibition in vivo in data set [5] was 45%. The molecule also displayed a 50% lethal dose (LD50) in “in vivo” of 243 mg/kg. The “catch of superoxide / one electron acceptance” value in data set [4] (setting [7]) was “can catch the superoxide; also recorded: accepts one electron from the superoxide”.

Take `Nc1n[nH]c2cc(O)ccc12` [(163), 3-Amino-6-hydroxyindazole]: in data set [5], the inhibition in vivo at 100 mg/kg was determined as 43%. Further, the LD50 in the data set “in vivo” was 252 mg/kg.

As for `Nc1n[nH]c2c(O)cccc12` [(164), 3-Amino-7-hydroxyindazole], the inhibition in vivo at 100 mg/kg in data set [5] worked out at 42%. In “in vivo”, this molecule returned an LD50 of 231 mg/kg.

For `Nc1n[nH]c2ccc(I)cc12` [(165), 3-Amino-5-iodoindazole], 100 mg/kg produced 55% inhibition in vivo in [5]. In addition, in the data set “in vivo”, the LD50 is 242 mg/kg.

The molecule `Nc1n[nH]c2c(I)cccc12` [(166), 3-Amino-7-iodoindazole] displayed an inhibition in vivo at 100 mg/kg in data set [5] of 50%. Moreover, in “in vivo”, the LD50 was found to be 198 mg/kg.

As to `Nc1cc(N)c2[nH]nc(N)c2c1` [(167), 3,5,7-Triaminoindazole], the inhibition in vivo at 100 mg/kg in data set [5] stood at 85%. The molecule also showed a 50% lethal dose (LD50) in the data set “in vivo” of 171 mg/kg.

With `COc1ccc2c(c1)c(CC(=O)O)c(C)n2C(=O)c1ccc(Cl)cc1` [Compound C-4, Indomethacin], the “Serotonin inducing edema Inhibition” value in the data set with Serotonin inducing edema (Dose: 10 mg/kg, oral) is on record as 21.4%. In addition, the “Bradykinin inducing edema Inhibition” value in data set [6] (Dose: 10 mg/kg, oral) was found to be 0.4%. Further, the “Histamine inducing edema Inhibition” value with Histamine inducing edema (Dose: 10 mg/kg, oral) is on record as 0%. Besides, the “Inhibition (acetic acid-writing, analgesic activity)” value in the data set with acetic acid-writing (Dose: 20 mg/kg, oral) is given as 50%.

Regarding `CCCCC1C(=O)N(c2ccccc2)N(c2ccccc2)C1=O` [Compound C-5, 3,5-dioxo-1,2-diphenyl-4-n-butylpyrazolidine], the “Serotonin inducing edema Inhibition” value with Serotonin inducing edema (100 mg/kg oral) is 2.8%. Moreover, the “Bradykinin inducing edema Inhibition” value in [6] (100 mg/kg oral) was 2.9%. For the same molecule, the “Histamine inducing edema Inhibition” value in the data set with Histamine inducing edema (100 mg/kg oral) is recorded as 0%. The “Inhibition (acetic acid-writing, analgesic activity)” value in the data set with acetic acid-writing (100 mg/kg oral) amounted to 9%.

For `CC(C(=O)O)c1cccc(C(=O)c2ccccc2)c1` (centres unmarked) [Compound C-6, 3-benzoylhydratropic acid], the “Serotonin inducing edema Inhibition” value with Serotonin inducing edema (Dose: 10 mg/kg, oral) was found to be 5.2%. Also, the “Bradykinin inducing edema Inhibition” value in data set [6] (Dose: 10 mg/kg, oral) is listed as 1.6%. In addition, in the data set on Histamine inducing edema (Dose: 10 mg/kg, oral), the “Histamine inducing edema Inhibition” value is listed as 2.9%.

For `COc1ccc2c(c1)c(CC(=O)O)c(C)n2C(=O)c1ccc(Cl)cc1` [indomethacin, 1-(p-chlorobenzoyl)-5-methoxy-2-methyl-indole-3-acetic acid, reference compound], in the data set on gastric ulcer (rat, in vivo, 10 mg/kg), the “occurrence frequency (Ulcer generation animal number/Total animal number)” value was 6/6 and the ulcer index is 10.2 mm.

For the origin of these results see patent US4751302A, “Indazole derivatives” (priority 1982, dated 1988).
